Reference: patent US20230220331A1, “TEMPORARY TREATMENT MEDIUM, TREATMENT KIT, EMBRYOGENESIS ARREST INHIBITOR, EMBRYOGENESIS ARREST INHIBITORY METHOD, DEVELOPMENTAL ENGINEERING PRODUCT PREPARATION METHOD, TRANSPLANTATION METHOD, THERAPEUTIC METHOD, AND DEVELOPMENTAL ENGINEERING PRODUCT” (priority 2020, published 2023)

Tested on: frozen embryos of C57BL/6J
Test: Recovery of re-frozen and re-thawed blastocysts, cytochalasin B vs Y-27632 (Treatment Example 10)
Type: cell-based, mouse
Conditions: for RECOVERY RATE about 3 hours later / RECOVERY RATE about 24 hours later / RECOVERY RATE immediately after thawing / number of embryos ABOUT 3 HOURS LATER / number of embryos ABOUT 24 HOURS LATER / number of embryos IMMEDIATELY AFTER THAWING: 19 embryos
Procedure: In this treatment example, as in the above-mentioned treatment example 9, the normal medium (hereinafter, referred to as “Y− medium” as in the treatment example 9), the temporary treatment medium to which Y-27632 is added (hereinafter, referred to as “Y+ medium” as in the treatment example 9), and a CB-added medium (hereinafter, referred to as “CB+ medium”) were used. The concentrations of CB in the CB+ medium were 5 μM and 10 μM are prepared. As the manipulation, the recovery rates when frozen embryos were thawed and developed, then re-frozen in blastocysts and re-thawed were compared.
For the treatment, 107 frozen embryos of C57BL/6J (provided from CLEA Japan, Inc.) at the 2-cell stage were used. Firstly, the frozen embryos at the 2-cell stage were thawed and blastocysts were developed as they were in a normal medium.
Then, the blastocysts were then transferred to each of the above media and placed for 30 minutes. Then, the embryos were transferred to Y− medium again and placed for 30 minutes.
Then, each embryo was frozen.
Then, the embryos were then thawed and placed in M2 medium for 10 minutes.
Then, each embryo was evenly divided and placed on the medium for 1 hour.
The embryos were observed by returning to the Y− medium again. This observation was performed immediately after thawing, 3 hours later, and 24 hours later.

`C=C1[C@@H](C)[C@H]2[C@H](Cc3ccccc3)NC(=O)[C@]23OC(=O)/C=C/[C@H](O)CCC[C@@H](C)C/C=C/[C@H]3[C@@H]1O` [CB+ mWM, 2H-Oxacyclotetradecino[2,3-d]isoindole-2,18(5H)-dione, 6,7,8,9,10,12a,13,14,15,15a,16,17-dodecahydro-5,13-dihydroxy-9,15-dimethyl-14-methyl ene-16-(phenylmethyl)-, (3E,5R,9R,11E,12aS,13S,15S,15aS,16S,18aS)-] was tested, and the “RECOVERY RATE about 3 hours later” value (5 μM in mWM) was 94%, the “RECOVERY RATE about 24 hours later” value (5 μM in mWM) was 78% and the “RECOVERY RATE immediately after thawing” value (5 μM in mWM) was 26%. The “number of embryos ABOUT 3 HOURS LATER” value (5 μM in mWM) was 18, the “number of embryos ABOUT 24 HOURS LATER” value (5 μM in mWM) was 15 and the “number of embryos IMMEDIATELY AFTER THAWING” value (5 μM in mWM) was 5. For the same compound, the “RECOVERY RATE about 3 hours later” value (10 μM in mWM) was 52%, the “RECOVERY RATE about 24 hours later” value (10 μM in mWM) was 63% and the “RECOVERY RATE immediately after thawing” value (10 μM in mWM) was 10%. The “number of embryos ABOUT 3 HOURS LATER” value (10 μM in mWM) was 10, the “number of embryos ABOUT 24 HOURS LATER” value (10 μM in mWM) was 12 and the “number of embryos IMMEDIATELY AFTER THAWING” value (10 μM in mWM) was 2. The “recovery rate of 5 μM higher than that of 10 μM” value (after 24 hours) was 15%.
